“And” between values parts separate entries of the source, which are not always exact repeats. Equal values may be shown once.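 The compound was tested at five concentrations on cells cultured in 96-well plates, with a 48-hour exposure period. At the GI50, growth is halved. TGI marks complete inhibition of growth.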
Tests used:
Experiment in all cases: NCI tumour cell line growth inhibition, 48 h
BT-549 breast = system: BT-549 breast
COLO 205 colon = system: COLO 205 colon
DU-145 prostate = system: DU-145 prostate
HCC-2998 colon = system: HCC-2998 colon
KM12 colon = system: KM12 colon
NCI-H226 lung = system: NCI-H226 lung
SNB-19 CNS = system: SNB-19 CNS
SR leukemia = system: SR leukemia
UACC-257 melanoma = system: UACC-257 melanoma
UACC-62 melanoma = system: UACC-62 melanoma

Structure (SMILES) | GI50 (BT-549 breast) [µM] | TGI (BT-549 breast) | GI50 (COLO 205 colon) [µM] | TGI (COLO 205 colon) [µM] | GI50 (DU-145 prostate) [µM] | TGI (DU-145 prostate) | GI50 (HCC-2998 colon) | TGI (HCC-2998 colon) | GI50 (KM12 colon) [µM] | TGI (KM12 colon) [µM] | GI50 (NCI-H226 lung) [µM] | TGI (NCI-H226 lung) [µM] | GI50 (SNB-19 CNS) [µM] | TGI (SNB-19 CNS) | GI50 (SR leukemia) [µM] | TGI (SR leukemia) [µM] | GI50 (UACC-257 melanoma) [µM] | TGI (UACC-257 melanoma) | GI50 (UACC-62 melanoma) [µM] | TGI (UACC-62 melanoma) [µM]
NC(=NCCCCCCN=C(N)/N=C(\N)Nc1ccc(Cl)cc1)/N=C(\N)Nc1ccc(Cl)cc1 | 1.52 | 4.24 µM | 0.951 | 1.71 | 1.93 | 6.52 µM | 1.8 µM | 6.33 µM | 0.927 | 1.74 | 1.79 | 9.12 | 1.46 | 5.97 µM | 0.945 | 2.37 | 2.01 | 7.93 µM | 1.28 | 4.32
O=C1C(Cl)=C(Nc2ccc(S(=O)(=O)c3ccc(NC4=C(Cl)C(=O)c5ccccc5C4=O)cc3)cc2)C(=O)c2ccccc21 | 1.65 | 3.24 µM | 1.74 | 3.22 | 1.91 | 3.69 µM | 2.82 µM | 6.33 µM | 2.17 | 5.38 | 3.1 | 18.6 | 3.11 | 13.9 µM | 1.27 | 7.19 | 1.92 | 3.48 µM | 1.66 | 3.18
CC(C)=C[C@@H]1C[C@H](C)[C@H]2CC[C@H](C)c3c(O)c(OC4OC(C)C(O)C(O)C4O)c(C)c1c32 (stereo partly drawn) | 18.9 | 34.8 µM | 14.4 | 27.9 | 10.9 | 23.3 µM | 0.734 µM | 3.97 µM | 2.63 | 8.16 | 17.3 | 33.1 | 15.7 | 29.2 µM | 2.59 | 10.4 | 14.2 | 27.3 µM | – | –
O=C(/C=C/c1ccc(O)c(O)c1)N1CCN(c2ccc(Cl)cc2)CC1 | 5.21 | 45.6 µM | 5.11 | 19.7 | 10.5 | 47.5 µM | 10.5 µM | 23.8 µM | 7.65 | 26.6 | 4.63 | 26.4 | 5.17 | 98.1 µM | 3.94 | 34 | 7.72 | 50 µM | 6.36 | 23.3
CNC(=O)CCN1CCN(CC/C=C2\c3ccccc3Sc3ccc(Cl)cc32)CC1 | 10.7 | 24 µM | 2.48 | 6 | 11.9 | 26.4 µM | 7.94 µM | 24.2 µM | 7.53 | 23.5 | 19 | 37.9 | 16 | 30.7 µM | 4.19 | 18.1 | 1.53 | 3.06 µM | 1.92 | 3.62
COc1cc(-c2nc(-c3ccccc3)c(-c3ccccc3)[nH]2)cc(OC)c1O | 19.5 | 39.5 µM | 19.6 | 36.4 | 17 | 32.1 µM | 17.1 µM | 32.7 µM | 15.1 | 30.4 | 21.2 | 50 | 20.8 | 52.9 µM | 13.6 | 51.7 | 21.7 | 44.8 µM | 15.2 | 29.6
CN(C)CCCN1c2ccccc2Sc2ccc(C(F)(F)F)cc21 | 1.77 | 3.32 µM and 26.5 µM | 1.38 | – | 1.79 | 3.22 µM and 31.2 µM | 1.46 µM and 10.5 µM and 4.5 µM | 2.89 µM and 23.8 µM and 15.8 µM | 1.65 | – | 1.56 | 3.17 | 1.71 | 3.27 µM and 28.8 µM and 30.3 µM | 2.14 | – | 1.62 | 3.49 µM and 29.5 µM and 26.7 µM | 1.46 | –
O=[N+]([O-])c1ccccc1N=Nc1c(O)[nH]c2c(Cl)cccc12 | – | > 82.3 µM | – | > 100 | – | > 79.2 µM | – | > 100 µM | – | > 80.3 | – | > 78.2 | – | > 79.3 µM | – | > 69.6 | – | > 42.5 µM | – | > 82.1
COc1cc(C(=O)c2cnc(-c3c[nH]c4cccc(C)c34)[nH]2)cc(OC)c1OC | 0.0204 | – | 0.00513 | 0.0412 | 0.00756 | > 100 µM | 0.0183 µM | 29.4 µM | 0.00482 | > 100 | 0.00485 | – | 0.00505 | > 100 µM | – | > 100 | 0.332 | – | 0.0044 | > 100
Cn1cc(-c2cc(-c3cn(C)c4ccccc34)[nH]n2)c2ccccc21 | 15.9 | 61.7 µM | 7.98 | > 100 | 15.6 | > 100 µM | 4.74 µM | > 100 µM | 4.58 | > 100 | 19.8 | 99 | 27 | > 100 µM | 3.46 | 14.8 | 80.6 | > 100 µM | 16.4 | > 100
S=c1ssnc1-c1cc2ccccc2o1 | 13.8 | 27.7 µM | 14.8 | 39.5 | 7.35 | 20.4 µM | 16.4 µM | 34.4 µM | 14.1 | 35.1 | 23.2 | 54.4 | 16.7 | 36.8 µM | 3.04 | 18.3 | 6.09 | 20.5 µM | 15.5 | 29.4
C=CCC(N[C@@H](CO)c1ccccc1)c1ccc2ccccc2n1 (stereo partly drawn) | > 100 | > 100 µM | > 100 | > 100 | > 100 | > 100 µM | > 100 µM | > 100 µM | > 100 | > 100 | > 100 | > 100 | – | – | 17.2 | 65.5 | 32.4 | > 100 µM | > 100 | > 100
CCSC[C@@H]1C[C@](O)(c2ccccc2)[C@@H](c2ccccc2)O1 | 89.1 | > 100 µM | > 78.9 | > 100 | > 100 | > 100 µM | > 100 µM | > 100 µM | > 75.8 | > 100 | > 77.1 | > 100 | > 100 | > 100 µM | < 0.136 | 9.3 | > 82.3 | > 100 µM | 69.2 | > 100

Reference: PubChem BioAssay (NCI)
